This is an account of results in patent publication US4011207A, “Des-(Ala^1, Gly^2,Lys^4 -Srif, Des-(Ala^1, Gly^2, Lys^4)-D-Trp^8 -Srif and intermediates” (American Home Products Corporation, priority 1976, dated 1977).

Where a name gives a salt, the structure may show the parent alone. Where a SMILES comes first, the peptide text is derived from it. Bridges are numbered along the chain shown (N, C = ends).

What all share (assay type): in vivo
The test system of one test is growth hormone. As to the kind of experiment: Growth hormone level by radioimmunoassay in nembutal-treated rats after subcutaneous injection. As to the method:
(§1) The growth hormone activity of the compound of Example 2 was determined by injecting rats weighing about 150 g. first with nembutal intraperitoneally at a dose of 50 mg/kg then after 5 minutes injecting the rats subcutaneously with a solution of the compound of Example 2 in saline at a dose of 100 m.g. per rat. Blood samples are taken 15 minutes after injection with the compound of Example 2 and the growth hormone level determined by radioimmunoassay.
(§2) The activity of the product of Example 3 was determined by the same technique as the compound of Example 2. The dose given the test animals was 1 mg/kg. Growth hormone concentration was reduced to 28±4 ng/ml from the control level of 75±16 (p<0.01). The insulin concentration in micro units per milliliter was reduced marginally to 168±13 from the control level of 208±11 (p>0.05). The glucagon concentration in pico grams per milliliter was not effected, being 31±3 in the treated animals as opposed to 37±2 in the control animals.

A further test concerns glucagon. As to the kind of experiment: Glucagon concentration in rats, same technique. To be noted: dose 1 mg/kg, control 37±2, not effected. How it is done: as §1, §2
The subject of a further test is insulin. Nature of the test: Insulin concentration in rats, same technique. To be noted: dose 1 mg/kg, control level 208±11 (p>0.05), reduced marginally. As to the method:
as §1, §2

For `C[C@@H](O)[C@@H]1NC(=O)[C@H](Cc2ccccc2)NC(=O)[C@H]([C@@H](C)O)NC(=O)[C@H](CCCCN)NC(=O)[C@H](Cc2c[nH]c3ccccc23)NC(=O)[C@H](Cc2ccccc2)NC(=O)[C@H](Cc2ccccc2)NC(=O)[C@H](CC(N)=O)NC(=O)[C@@H](N)CSSC[C@@H](C(=O)O)NC(=O)[C@H](CO)NC1=O` [Example 2, L-Cysteinyl-L-asparaginyl-L-phenylalanyl-L-phenylalanyl-L-tryptophyl-L-lysyl-L-threonyl-L-phenylalanyl-L-threonyl-L-seryl-L-cysteine- (1,11 cyclic disulfide), diacetate salt] (H-CNFFWKTFTSC-OH; disulfide 1-11), in the test on growth hormone (rats about 150 g, nembutal 50 mg/kg i.p., compound s.c. in saline at 100 m.g. per rat, blood 15 minutes after injection, control 212±26 ng/ml), the growth hormone level was 103 ± 13 ng/mL.

Consider “N-tert-Butyloxycarbonyl-S-p-methoxybenzyl-L-cysteinyl-L-asparaginyl-L-phenylalanyl-L-phenylalanyl-D-tryptophyl-ε-2-chlorobenzyloxycarbonyl-L-lysyl-O-benzyl-L-threonyl-L-phenylalanyl-O-benzyl-L-threonyl-O-benzyl-L-seryl-S-p-methoxybenzyl-L-cysteinyl-hydroxymethyl polystyrene [Example 3]”, for which the Growth hormone concentration in the test on growth hormone (rats, dose 1 mg/kg, same technique, control level 75±16 (p<0.01)) came to 28 ± 4 ng/mL. The glucagon concentration in the test with glucagon was determined as 31±3 pico grams per milliliter. In addition, the insulin concentration in the test with insulin is given as 168±13 micro units per milliliter.
